Assay results reported in PubChem BioAssay (NCI).
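Assay format: 96-well plates, 48-hour exposure. TGI marks complete inhibition of growth.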

How the values were obtained:
Assay in all cases: DTP human tumour cell line panel, 48 h
[1] = test system: SNB-75 CNS
[2] = test system: HCC-2998 colon
[3] = test system: COLO 205 colon
[4] = test system: RXF 393 renal
[5] = test system: DU-145 prostate
[6] = test system: SN12C renal
[7] = test system: LOX IMVI melanoma
[8] = test system: MOLT-4 leukemia
[9] = test system: MDA-N
[10] = test system: SK-MEL-5 melanoma
[11] = test system: OVCAR-3 ovarian
[12] = test system: NCI-H522 lung
[13] = test system: UACC-257 melanoma
[14] = test system: SF-295 CNS
[15] = test system: NCI-H460 lung
[16] = test system: IGROV1 ovarian
[17] = test system: M14 melanoma
[18] = test system: CCRF-CEM leukemia
[19] = test system: UO-31 renal
[20] = test system: T-47D breast
[21] = test system: SR leukemia
[22] = test system: SF-539 CNS
[23] = test system: BT-549 breast
[24] = test system: U251 CNS
[25] = test system: HL-60(TB) leukemia
[26] = test system: A549 NSCLC
[27] = test system: K-562 leukemia
[28] = test system: SK-OV-3 ovarian
[29] = test system: KM12 colon
[30] = test system: HOP-62 NSCLC
[31] = test system: MCF7 breast
[32] = test system: NCI/ADR-RES ovarian
[33] = test system: CAKI-1 renal
[34] = test system: MDA-MB-435
[35] = test system: HCT-116 colon
[36] = test system: OVCAR-4 ovarian
[37] = test system: HCT-15 colon
[38] = test system: 786-0 renal
[39] = test system: UACC-62 melanoma
[40] = test system: NCI-H226 lung
[41] = test system: A498 renal
[42] = test system: ACHN renal
[43] = test system: HOP-92 NSCLC
[44] = test system: NCI-H23 lung
[45] = test system: EKVX NSCLC
[46] = test system: SK-MEL-2 melanoma
[47] = test system: SW-620 colon
[48] = test system: OVCAR-8 ovarian
[49] = test system: OVCAR-5 ovarian
[50] = test system: SF-268 CNS

Compound: CC(=O)Nc1ccc2c3c(cc(O)c2c1)N(C(=O)CCCCCCC(=O)Nc1ccc2c4c(cc(O)c2c1)N(C(=O)OC(C)(C)C)CC4CCl)CC3CCl (stereo not given)
- TGI [1]: 284 nM
- TGI [2]: 238 nM
- TGI [3]: 284 nM
- TGI [4]: 39.2 nM
- TGI [5]: 58.7 nM
- TGI [6]: 2590 nM
- TGI [7]: > 33400 nM
- TGI [8]: > 100000 nM
- TGI [9]: 332 nM
- TGI [10]: 78.3 nM
- TGI [11]: 263 nM
- TGI [12]: 405 nM
- TGI [13]: 439 nM
- TGI [14]: 957 nM
- TGI [15]: 245 nM
- TGI [16]: > 33800 nM
- TGI [17]: 374 nM
- TGI [18]: 25.9 nM
- TGI [19]: 3350 nM
- TGI [20]: 2300 nM
- TGI [21]: 24.3 nM
- TGI [22]: 396 nM
- TGI [23]: 979 nM
- TGI [24]: 11000 nM
- TGI [25]: 241 nM
- TGI [26]: > 32300 nM
- TGI [27]: > 100000 nM
- TGI [28]: 23900 nM
- TGI [29]: 804 nM
- TGI [30]: 3450 nM
- TGI [31]: 739 nM
- TGI [32]: > 72000 nM
- TGI [33]: 17200 nM
- TGI [34]: 305 nM
- TGI [35]: 11900 nM
- TGI [36]: 3980 nM
- TGI [37]: > 38500 nM
- TGI [38]: 5550 nM
- TGI [39]: 219 nM
- TGI [40]: 463 nM
- TGI [41]: 81.9 nM
- TGI [42]: 465 nM
- TGI [43]: 4110 nM
- TGI [44]: 346 nM
- TGI [45]: 1080 nM
- TGI [46]: 59.3 nM
- TGI [47]: > 36300 nM
- TGI [48]: > 32900 nM
- TGI [49]: 663 nM
- TGI [50]: 1670 nM
